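96-well plates; 48 h exposure; 5 concentrations. Endpoints by linear interpolation between flanking doses. Not reached: highest tested concentration assigned. GI50 is the concentration that inhibits growth by half. TGI: concentration producing complete growth inhibition.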
How the values were obtained:
Assay in all cases: NCI-60 cell line screen, 48 h
786-0 renal = test system: 786-0 renal
A498 renal = test system: A498 renal
A549 NSCLC = test system: A549 NSCLC
ACHN renal = test system: ACHN renal
BT-549 breast = test system: BT-549 breast
CAKI-1 renal = test system: CAKI-1 renal
CCRF-CEM leukemia = test system: CCRF-CEM leukemia
COLO 205 colon = test system: COLO 205 colon
DU-145 prostate = test system: DU-145 prostate
EKVX NSCLC = test system: EKVX NSCLC
HCC-2998 colon = test system: HCC-2998 colon
HCT-116 colon = test system: HCT-116 colon
HCT-15 colon = test system: HCT-15 colon
HL-60(TB) leukemia = test system: HL-60(TB) leukemia
HOP-62 NSCLC = test system: HOP-62 NSCLC
HOP-92 NSCLC = test system: HOP-92 NSCLC
HS 578T breast = test system: HS 578T breast
HT29 colon = test system: HT29 colon
IGROV1 ovarian = test system: IGROV1 ovarian
K-562 leukemia = test system: K-562 leukemia
KM12 colon = test system: KM12 colon
LOX IMVI melanoma = test system: LOX IMVI melanoma
M14 melanoma = test system: M14 melanoma
MALME-3M melanoma = test system: MALME-3M melanoma
MCF7 breast = test system: MCF7 breast
MDA-MB-231 breast = test system: MDA-MB-231 breast
MDA-MB-435 = test system: MDA-MB-435
MDA-MB-468 breast = test system: MDA-MB-468 breast
MOLT-4 leukemia = test system: MOLT-4 leukemia
NCI-H226 lung = test system: NCI-H226 lung
NCI-H23 lung = test system: NCI-H23 lung
NCI-H460 lung = test system: NCI-H460 lung
NCI-H522 lung = test system: NCI-H522 lung
OVCAR-3 ovarian = test system: OVCAR-3 ovarian
OVCAR-4 ovarian = test system: OVCAR-4 ovarian
OVCAR-5 ovarian = test system: OVCAR-5 ovarian
OVCAR-8 ovarian = test system: OVCAR-8 ovarian
PC-3 prostate = test system: PC-3 prostate
RPMI-8226 leukemia = test system: RPMI-8226 leukemia
RXF 393 renal = test system: RXF 393 renal
SF-268 CNS = test system: SF-268 CNS
SF-295 CNS = test system: SF-295 CNS
SF-539 CNS = test system: SF-539 CNS
SK-MEL-2 melanoma = test system: SK-MEL-2 melanoma
SK-MEL-28 melanoma = test system: SK-MEL-28 melanoma
SK-MEL-5 melanoma = test system: SK-MEL-5 melanoma
SK-OV-3 ovarian = test system: SK-OV-3 ovarian
SN12C renal = test system: SN12C renal
SNB-19 CNS = test system: SNB-19 CNS
SNB-75 CNS = test system: SNB-75 CNS
SR leukemia = test system: SR leukemia
SW-620 colon = test system: SW-620 colon
T-47D breast = test system: T-47D breast
TK-10 renal = test system: TK-10 renal
U251 CNS = test system: U251 CNS
UACC-257 melanoma = test system: UACC-257 melanoma
UACC-62 melanoma = test system: UACC-62 melanoma
UO-31 renal = test system: UO-31 renal

O=C(/C=C/c1cccc(Br)c1)c1nc2ccccc2n1Cc1ccc(F)cc1
GI50 (786-0 renal): 11.8 µM | TGI (786-0 renal): 26.2 µM | GI50 (A498 renal): 54.3 µM | TGI (A498 renal): > 100 µM | GI50 (A549 NSCLC): 14.2 µM | TGI (A549 NSCLC): 96.3 µM | GI50 (ACHN renal): 13.3 µM | TGI (ACHN renal): 40.6 µM | GI50 (BT-549 breast): 3.87 µM | TGI (BT-549 breast): 16.5 µM | GI50 (CAKI-1 renal): 5.72 µM | TGI (CAKI-1 renal): 32.5 µM | GI50 (CCRF-CEM leukemia): 3.83 µM | TGI (CCRF-CEM leukemia): > 100 µM | GI50 (COLO 205 colon): 16.6 µM | TGI (COLO 205 colon): 36.2 µM | GI50 (DU-145 prostate): 12.6 µM | TGI (DU-145 prostate): 47.6 µM | GI50 (EKVX NSCLC): 11.5 µM | TGI (EKVX NSCLC): 28.6 µM | GI50 (HCC-2998 colon): 11.4 µM | TGI (HCC-2998 colon): 24.2 µM | GI50 (HCT-116 colon): 3.79 µM | TGI (HCT-116 colon): 14.2 µM | GI50 (HCT-15 colon): 3.65 µM | TGI (HCT-15 colon): 14.6 µM | GI50 (HL-60(TB) leukemia): 4.06 µM | TGI (HL-60(TB) leukemia): 26.7 µM | GI50 (HOP-62 NSCLC): 14.6 µM | TGI (HOP-62 NSCLC): 38.8 µM | GI50 (HOP-92 NSCLC): 3.26 µM | TGI (HOP-92 NSCLC): 35 µM | GI50 (HS 578T breast): 9.74 µM | TGI (HS 578T breast): > 100 µM | GI50 (HT29 colon): 5.23 µM | TGI (HT29 colon): 20.6 µM | GI50 (IGROV1 ovarian): 8.02 µM | TGI (IGROV1 ovarian): 32.4 µM | GI50 (K-562 leukemia): 3.75 µM | TGI (K-562 leukemia): > 100 µM | GI50 (KM12 colon): 5.52 µM | TGI (KM12 colon): 22.4 µM | GI50 (LOX IMVI melanoma): 2.87 µM | TGI (LOX IMVI melanoma): 10.5 µM | GI50 (M14 melanoma): 10.6 µM | TGI (M14 melanoma): 26.1 µM | GI50 (MALME-3M melanoma): 11.6 µM | TGI (MALME-3M melanoma): 26 µM | GI50 (MCF7 breast): 2.83 µM | TGI (MCF7 breast): 16.7 µM | GI50 (MDA-MB-231 breast): 6.59 µM | TGI (MDA-MB-231 breast): 27.2 µM | GI50 (MDA-MB-435): 3.87 µM | TGI (MDA-MB-435): 16.2 µM | GI50 (MDA-MB-468 breast): 5.02 µM | TGI (MDA-MB-468 breast): 18.2 µM | GI50 (MOLT-4 leukemia): 3.85 µM | TGI (MOLT-4 leukemia): > 100 µM | GI50 (NCI-H226 lung): 17 µM | TGI (NCI-H226 lung): 44 µM | GI50 (NCI-H23 lung): 9.04 µM | TGI (NCI-H23 lung): 26 µM | GI50 (NCI-H460 lung): 4.65 µM | TGI (NCI-H460 lung): 20 µM | GI50 (NCI-H522 lung): 10.9 µM | TGI (NCI-H522 lung): 32.7 µM | GI50 (OVCAR-3 ovarian): 4.17 µM | TGI (OVCAR-3 ovarian): 16.9 µM | GI50 (OVCAR-4 ovarian): 14.5 µM | TGI (OVCAR-4 ovarian): > 100 µM | GI50 (OVCAR-5 ovarian): 11.8 µM | TGI (OVCAR-5 ovarian): 27.7 µM | GI50 (OVCAR-8 ovarian): 5.05 µM | TGI (OVCAR-8 ovarian): 27.1 µM | GI50 (PC-3 prostate): 6.42 µM | TGI (PC-3 prostate): 34.3 µM | GI50 (RPMI-8226 leukemia): 4.02 µM | TGI (RPMI-8226 leukemia): > 100 µM | GI50 (RXF 393 renal): 4.04 µM | TGI (RXF 393 renal): 15.9 µM | GI50 (SF-268 CNS): 16.7 µM | TGI (SF-268 CNS): > 100 µM | GI50 (SF-295 CNS): 11.3 µM | TGI (SF-295 CNS): 27.1 µM | GI50 (SF-539 CNS): 13.6 µM | TGI (SF-539 CNS): 26.8 µM | GI50 (SK-MEL-2 melanoma): 11.6 µM | TGI (SK-MEL-2 melanoma): 29.6 µM | GI50 (SK-MEL-28 melanoma): 9.33 µM | TGI (SK-MEL-28 melanoma): 23.1 µM | GI50 (SK-MEL-5 melanoma): 10.3 µM | TGI (SK-MEL-5 melanoma): 23.2 µM | GI50 (SK-OV-3 ovarian): 62.4 µM | TGI (SK-OV-3 ovarian): > 100 µM | GI50 (SN12C renal): 14.9 µM | TGI (SN12C renal): 40.1 µM | GI50 (SNB-19 CNS): 11.2 µM | TGI (SNB-19 CNS): 25.3 µM | GI50 (SNB-75 CNS): 3.24 µM | TGI (SNB-75 CNS): 68.1 µM | GI50 (SR leukemia): 4.73 µM | TGI (SR leukemia): > 100 µM | GI50 (SW-620 colon): 3.8 µM | TGI (SW-620 colon): 14.6 µM | GI50 (T-47D breast): 5.01 µM | TGI (T-47D breast): 84.2 µM | GI50 (TK-10 renal): 17.1 µM | TGI (TK-10 renal): 57.5 µM | GI50 (U251 CNS): 5.49 µM | TGI (U251 CNS): 20.3 µM | GI50 (UACC-257 melanoma): 10.7 µM | TGI (UACC-257 melanoma): 31.1 µM | GI50 (UACC-62 melanoma): 4.67 µM | TGI (UACC-62 melanoma): 18.2 µM | GI50 (UO-31 renal): 5.17 µM | TGI (UO-31 renal): 18.9 µM

Reference: PubChem BioAssay (NCI)
